Test results: US20180207114A1, “ESTROGEN RELATED RECEPTOR GAMMA (ERRgamma) ENHANCES AND MAINTAINS BROWN FAT THERMOGENIC CAPACITY” (Salk Institute for Biological Studies, priority 2015, published 2018)

Assays:
ERRα = target: T1, ERRα (Homo sapiens, UniProt P11474); conditions: for example in the presence of PGC-1a; cited from earlier work
T1 sequence (P11474 1-423): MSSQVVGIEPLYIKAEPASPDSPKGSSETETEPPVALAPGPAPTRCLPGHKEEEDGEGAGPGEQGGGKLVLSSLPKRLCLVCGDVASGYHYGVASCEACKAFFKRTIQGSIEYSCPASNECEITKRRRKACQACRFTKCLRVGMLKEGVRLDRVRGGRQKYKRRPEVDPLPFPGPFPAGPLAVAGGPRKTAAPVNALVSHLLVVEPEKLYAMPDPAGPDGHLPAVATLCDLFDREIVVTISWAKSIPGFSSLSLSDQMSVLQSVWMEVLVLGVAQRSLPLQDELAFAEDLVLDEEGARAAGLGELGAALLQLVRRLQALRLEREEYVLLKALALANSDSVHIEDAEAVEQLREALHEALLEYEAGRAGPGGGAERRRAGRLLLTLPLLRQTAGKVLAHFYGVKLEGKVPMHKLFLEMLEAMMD

ERRβ = target: T2, ERRβ (Homo sapiens, UniProt O95718); conditions: for example in the presence of PGC-1a; cited from earlier work
T2 sequence (O95718 1-433): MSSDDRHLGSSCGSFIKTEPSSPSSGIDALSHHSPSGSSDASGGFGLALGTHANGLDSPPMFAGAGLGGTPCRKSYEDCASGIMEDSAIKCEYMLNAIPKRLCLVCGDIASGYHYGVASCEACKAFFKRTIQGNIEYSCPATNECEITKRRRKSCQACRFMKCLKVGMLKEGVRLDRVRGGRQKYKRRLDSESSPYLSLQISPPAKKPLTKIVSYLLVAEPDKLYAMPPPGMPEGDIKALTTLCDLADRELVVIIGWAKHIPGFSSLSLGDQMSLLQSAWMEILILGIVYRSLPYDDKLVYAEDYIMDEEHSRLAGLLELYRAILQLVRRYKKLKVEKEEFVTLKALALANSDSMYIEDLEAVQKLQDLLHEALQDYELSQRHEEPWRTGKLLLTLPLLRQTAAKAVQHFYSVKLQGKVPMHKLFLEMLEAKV

ERRγ [1] = target: T3, ERRγ (Homo sapiens, UniProt P62508); conditions: for example in the presence of PGC-1a; cited from earlier work
T3 sequence (P62508 1-458): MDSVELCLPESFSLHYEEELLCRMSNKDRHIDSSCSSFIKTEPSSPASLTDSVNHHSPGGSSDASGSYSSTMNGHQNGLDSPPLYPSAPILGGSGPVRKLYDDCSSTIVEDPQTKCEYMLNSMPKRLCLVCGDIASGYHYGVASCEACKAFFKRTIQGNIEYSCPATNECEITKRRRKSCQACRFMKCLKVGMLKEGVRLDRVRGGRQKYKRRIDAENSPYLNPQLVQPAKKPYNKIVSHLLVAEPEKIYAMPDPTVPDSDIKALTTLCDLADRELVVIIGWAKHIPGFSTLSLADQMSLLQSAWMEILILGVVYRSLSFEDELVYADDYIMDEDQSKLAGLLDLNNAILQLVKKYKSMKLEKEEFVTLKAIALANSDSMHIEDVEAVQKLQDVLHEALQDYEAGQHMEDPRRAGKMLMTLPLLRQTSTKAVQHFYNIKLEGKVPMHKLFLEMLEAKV

ERRγ [2] = target: T3, ERRγ; conditions: cited from earlier work
[3] = system: control flox/flox (WT) and ERRγ ASKO (KO) mice; experiment: Oxygen consumption (VO2, CLAMS) after intraperitoneal injection of beta adrenergic agonist in mice; assay type: in vivo, mouse
Description: ERRγ flox/flox mice were crossed with adiponectin-Cre mice (Jackson Laboratory) to generate ERRγ-ASKO mice. ERRγ-ASKO mice and flox/flox control littermates received a standard chow diet (MI laboratory rodent diet 5001, Harlan Teklad) or high fat (60%) diet (F3282, Bio-Serv) and water ad libitum. All mice used for studies were male unless otherwise noted. Mice were housed at thermoneutrality (30° C.) unless otherwise indicated. PPARα null mice were purchased from Jackson laboratory.
Oxygen consumption (VO2) was measured using the Comprehensive Laboratory Animal Monitoring System (CLAMS; Columbus, Ohio). Data were normalized to body weights. Body temperatures were assessed using a RET-3 rectal probe for mice (Physitemp). CL316243 (Sigma) and norepinephrine were intraperitoneally injected into mice at 1 mg/kg body weight.

[4] = system: differentiated PAZ-6 brown adipocytes; experiment: Seahorse XF oxygen consumption assay in differentiated PAZ-6 brown adipocytes; assay type: cell-based, human
Description: PAZ-6 human brown adipocytes were differentiated as previously described (18). Human adipose derived stem cells were cultured as previously described.
Bioenergetic profiles were analyzed using a XF24XF analyzer (Seahorse Bioscience) and the XF Palmitate-BSA FAO Substrate (Seahorse Bioscience).

## Cc1ccc(/C=N/NC(=O)c2ccc(O)cc2)cc1 [DY163]
ERRα
  activation of ERRα: activate
ERRβ
  activation of ERRβ: activate
ERRγ [1]
  activation of ERRγ: activate

## Nc1ccc(C(=O)N/N=C/c2ccc(/N=N/c3ccccc3)cc2)cn1 [E6]
ERRγ [2]
  selectivity for ERRγ over ERRα and β: selective for ERRγ but not ERRα and β

## CCc1ccc(C=NNC(=O)c2ccc(O)cc2)s1 [DY164]
ERRα
  activation of ERRα: activate
ERRβ
  activation of ERRβ: activate
ERRγ [1]
  activation of ERRγ: activate

## O=C(NN=Cc1ccccc1)c1ccc(O)cc1 [DY162]
ERRα
  activation of ERRα: activate
ERRβ
  activation of ERRβ: activate
ERRγ [1]
  activation of ERRγ: activate

## NC[C@H](O)c1ccc(O)c(O)c1 [NE, norepinephrine]
[3]; ERRγ-ASKO mice at thermoneutrality, 1 mg/kg intraperitoneal
  metabolic rate (VO2) response upon injection: severely blunted
[3]; control flox/flox mice at thermoneutrality, 1 mg/kg intraperitoneal
  metabolic rate (oxygen consumption, VO2) upon injection: increased

## Cc1cccc(C=NNC(=O)c2ccc(O)cc2)c1 [DY159]
ERRα
  activation of ERRα: activate
ERRβ
  activation of ERRβ: activate
ERRγ [1]
  activation of ERRγ: activate

## C[C@H](Cc1ccc2c(c1)OC(C(=O)[O-])(C(=O)[O-])O2)NC[C@H](O)c1cccc(Cl)c1.[Na+].[Na+] [CL316243]
[3]; ERRγ-ASKO female mice at thermoneutrality, 1 mg/kg BW intraperitoneal
  response (VO2, RER) to injection: blunted

## CC(C)c1ccc(/C=N/NC(=O)c2ccc(O)cc2)cc1 [GSK4716]
[4]; differentiated PAZ-6, 10 μM overnight, with vs without palmitate (FIG. 5M)
  Increase in oxygen consumption rate in the presence or absence of palmitate: only occurred in the presence of fatty acids
[4]; differentiated PAZ-6 treated overnight with 10 μM vs DMSO vehicle
  proton leak or uncoupling: higher
[4]; differentiated PAZ-6 treated overnight with 10 μM vs DMSO vehicle, in the presence of fatty acids (palmitate)
  Oxygen consumption rate: higher
